Entries after “also recorded” stand apart in the source; their conditions may differ. Where two headings read alike, the source gives them in different places.
Experiments:
[1] = test system: cultured lymphoid leukemia L1210 cells; settings: data from Tong et al. 1976, read-out: Inhibition of Synthesis of RNA, ED50; cited from earlier work
[2] = test system: cultured lymphoid leukemia L1210 cells; settings: cited from earlier work
[3] = test system: lymphocytic leukemia P388 implanted in mice; settings: cited from earlier work
[4] = test system: cultured lymphoid leukemia L1210 cells; settings: data from Tong et al. 1976, read-out: Inhibition of Synthesis of DNA, ED50; cited from earlier work
[5] = test system: isolated helical DNA; settings: cited from earlier work
[6] = antitumor activity (test not specified)
[7] = test system: lymphocytic leukemia P388 implanted in mice; experiment: antitumor efficacy vs P388 leukemia in mice (increased survival time); format: in vivo; settings: for antitumor activity in mouse tests: NCI criteria, doses of 0.5-1.0 mg/kg; for Optimum Antitumor Efficacy, T/C / Optimum Antitumor Dose: P388 leukemia in mice; for Optimum Antitumor Efficacy, T/C: at optimum dose (septacidin 0.50, compounds 2 and 3 1.0 mg/kg), compounds 2 and 3 average from two tests; for Optimum Antitumor Dose: dose producing the highest T/C
Method: (§1) The septacidin analogs 2 and 3 (corresponding to the compounds of Examples I and II, respectively) were tested first in cultured lymphoid leukemia L1210 cells for inhibition of nucleic acid syntheses and for cytotoxicity,by previously reported procedures. A sample of natural septacidin (compound 1) was obtained from the National Cancer Institute and included for comparison. Data on adriamycin (compound 4) are also included. The analogs were then tested, along with 1 and 4, against lymphocytic leukemia P388 implanted in mice, under the auspices of the NCI and according to its protocols which use the increased survival time of treated animals compared to controls as the measure of antitumor efficacy.
^c Assay described in R. I. Geran, N. H. Greenberg, M. M. MacDonald,
A. M. Schumacker and B. J. Abbott, Cancer Chemother. Rep., Part 3, 3 (No.
2), 9 (1972). Protocol 1.200. Other doses were higher or lower by a facto
of 2. Each compound has 2-4 active doses. Compounds were of borderline
solubility, and some doses were injection as suspensions. Water, water +
Tween 80, or saline + Tween 80 (emul. agent, ICI) were used as vehicles.
By definition, a compound is active if T/C […] 125. For compounds 2
and 3 the T/C is the average from two tests. Optimum dose is the one
producing the highest T/C.

[8] = test system: cultured lymphoid leukemia L1210 cells; experiment: inhibition of DNA synthesis in cultured L1210 leukemia cells; format: cell-based
Method: as §1
(§2) ^b Assay described in G. Tong, W. W. Lee, D. R. Black and D. W. Henry

[9] = test system: cultured lymphoid leukemia L1210 cells; experiment: cytotoxicity vs cultured L1210 leukemia cells; format: cell-based; settings: for IC50: cultured L1210 leukemia cells, read-out: Cytotoxicity I50
Method: as §1, §2

[10] = test system: cultured lymphoid leukemia L1210 cells; experiment: inhibition of RNA synthesis in cultured L1210 leukemia cells; format: cell-based
Method: as §1, §2

[11] = test system: cultured lymphoid leukemia L1210 cells; experiment: in vitro activity in cultured L1210 cells (inhibition of nucleic acid syntheses); format: cell-based
Method: as §1, §2

[12] = test system: isolated helical DNA; experiment: binding to isolated helical DNA in solution (effect on helix-coil transition temperature)
Description: The in vivo efficacy of adriamycin is much higher, but there are other differences.
as §2
by the modified procedure.

[13] = solubility; format: physicochemical
[14] = Mus musculus, cultured L1210 leukemia cells, read-out: Inhibition of Synthesis of DNA, ED50
[15] = in vitro, compared with septacidin (1)
[16] = Mus musculus, cultured L1210 leukemia cells, read-out: Inhibition of Synthesis of RNA, ED50

## COc1cccc2c1C(=O)c1c(O)c3c(c(O)c1C2=O)C[C@@](O)(C(=O)CO)C[C@@H]3O[C@H]1C[C@H](N)[C@H](O)[C@H](C)O1 [Adriamycin]
[1]
  IC50: 670 nM
[2]
  cytotoxicity: highly cytotoxic
[2]; cultured L1210 leukemia cells, data from Tong et al. 1976, read-out: Cytotoxicity I50
  IC50: 32 nM
[3]; P388 leukemia in mice, at 1.0 mg/kg, qd 1-9, data from Tong et al. 1976
  Optimum Antitumor Efficacy, T/C: 193%
[3]; P388 leukemia in mice, qd 1-9, data from Tong et al. 1976
  Optimum Antitumor Dose: 1.0 mg/kg
[3]; adriamycin compared with 2
  in vivo efficacy: much higher
[4]
  IC50: 1500 nM
[5]; modified procedure, data from Tong et al. 1976
  Binding to Isolated Helical DNA in Solution, ΔTm: 13.6 °C
[5]; ΔTm
  binding to isolated helical DNA in solution: binds strongly

## CCCCCC(=O)NCC(=O)NC1C(C)OC(Nc2ncnc3[nH]cnc23)C(O)C1O [Example VI, 6-[4,6-Didoexy-4-(caproylglycyl)amino-β-L-glucopyranosylamino]-9H-purine]
[6]
  antitumor activity: inactive; also recorded: loss of activity was total

## CC(C)CCCCCCCCCCCCC(=O)NCC(=O)NC1C(O)C(O)C(Nc2ncnc3nc[nH]c23)OC1C(O)CO (stereo not drawn) [Septacidin]
[7]; P388 in mice, qd 1-9, corrected for 75% purity, assuming inactive impurities
  Optimum Antitumor Dose, corrected for purity: 0.38 mg/kg
[7]; P388 in mice
  antitumor activity in mouse tests: high antitumor potency
[7]; qd 1-9
  Optimum Antitumor Efficacy, T/C: 154%
  Optimum Antitumor Dose: 0.50 mg/kg
[8]; cultured L1210 cells, corrected for 75% purity, assuming inactive impurities, read-out: Inhibition of Synthesis of DNA, ED50, corrected for purity
  IC50: 230 nM
[8]; cultured L1210 leukemia cells, read-out: Inhibition of Synthesis of DNA, ED50
  IC50: 300 nM
[9]
  IC50: > 5000 nM
[10]; cultured L1210 cells, corrected for 75% purity, assuming inactive impurities, read-out: Inhibition of Synthesis of RNA, ED50, corrected for purity
  IC50: 530 nM
[10]; cultured L1210 leukemia cells, read-out: Inhibition of Synthesis of RNA, ED50
  IC50: 700 nM

## CC(C)CCCCCCCCCCCCC(=O)NCC(=O)NC1C(C)OC(Nc2ncnc3[nH]cnc23)C(O)C1O [Compound 2, 6-[4,6-Dideoxy-4-(isopalmitoylglycyl)amino-β-L-glucopyranosylamino]-9H-purine]
[7]; P388 in mice
  antitumor activity in mouse tests: confirmed activity
[7]; qd 1-9
  Optimum Antitumor Efficacy, T/C: 160%
  Optimum Antitumor Dose: 1.0 mg/kg
[11]
  inhibition of nucleic acid synthesis: potent inhibition of nucleic acid synthesis
[8]; [14]
  IC50: 2600 nM
[8]; [15]
  potency in the DNA test: not as potent
[9]; Mus musculus
  IC50: > 20000 nM
[9]; at soluble levels
  cytotoxic effects: could not be observed at soluble levels
[12]
  Binding to Isolated Helical DNA in Solution, ΔTm: 0.6 °C
[12]; ΔTm
  binding to isolated helical DNA in solution: binds only weakly
[13]
  solubility in CH3OH: moderately soluble
  solubility in H2O or saline: slightly soluble
[6]
  antitumor activity: enhanced antitumor activity
[6]; comparison of both in vivo and in vitro data
  potency compared with adriamycin: comparable in potency
[10]; [16]
  IC50: 880 nM
[10]; [15]
  response in the RNA test: a response nearly the same as 1

## CCCCCCCCCCCC(=O)NCC(=O)N[C@@H]1[C@@H](O)[C@H](O)[C@@H](Nc2ncnc3[nH]cnc23)O[C@H]1C [Compound 3, 6-[4,6-Dideoxy-4-(lauroylglycyl)amino-β-L-glucopyranosylamino]-9H-purine]
[7]; P388 in mice
  antitumor activity in mouse tests: confirmed activity
[7]; qd 1-9
  Optimum Antitumor Efficacy, T/C: 137%
  Optimum Antitumor Dose: 1.0 mg/kg
[7]; fatty acid shortened from 16 to 12 carbons, compared with 2
  efficacy in vivo: slight loss of efficacy in vivo
[11]; compared with septacidin (1) or analog 2
  in vitro activity: noticeably less potent; also recorded: decreased activity in vitro
[8]; [14]
  IC50: 29000 nM
[9]; Mus musculus
  IC50: > 10000 nM
[13]
  solubility in CH3OH: moderately soluble
  solubility in H2O or saline: slightly soluble
[10]; [16]
  IC50: 18000 nM

From patent US4086416A, “Septacidin analogs” (Stanford Research Institute, priority 1977, dated 1978)
